# Laboratory results as given in US20080095764A1, “Use of genetically-and epigenetically-altered protocadherins in methods of diagnosing, prognosing, and treating cancer” (THE TRUSTEES OF COLUMBIA UNIVERSITY IN THE CITY OF NEW YORK, priority 2004, published 2008).
# “Also recorded” adds a separate entry of the source.
# Test system: PCDH8 expression in MDA-MB-435s cells
# Test: 5-aza-deoxycytidine treatment, reactivation of PCDH8 expression (RT-PCR)
# Type: cell-based, human
# Details: MDA-MB-435s breast cancer cells with methylated PCDH8 promoter, 1 μM 5-aza-deoxycytidine for 72 hours, vs PBS control
# Protocol: Cells were lysed in solution D, and RNA was separated by CsCl. RNA was resuspended in sodium acetate, and reprecipitated with ethanol. The pellet was dissolved in DEPC-treated water. RNA was primed with random hexamers, and reverse-transcribed with Superscript II reverse transcriptase (Invitrogen).
# cDNA was synthesized from RNA primed with random hexamers (Amersham). Primers used for RT-PCR are below: DIAPH3: […] (SEQ ID NO:74, […] (SEQ ID NO:75). PCDH8: TGGCGGTGTGGAAAGGACA (SEQ ID NO:75), […] (SEQ ID NO:76). For reactivation studies, cells were treated with 1 μM 5-aza-deoxycytidine for 72 hours.
# Cells were plated to 20% confluence, and treated with fresh 1 micromolar 5-aza-deoxycytidine for 72 h. RNA and cDNA were prepared from the cells and subjected to PCR.
smiles,measurement,value
Nc1ncn([C@H]2C[C@H](O)[C@@H](CO)O2)c(=O)n1 [5-aza-deoxycytidine],PCDH8 expression after treatment,restored; also recorded: reactivated
